2 compounds from patent publication US20130338092A1, “COMPOUNDS AND METHODS FOR TARGETING LEUKEMIC STEM CELLS” (The Broad Institute, Inc., priority 2011, published 2013) can be followed below.

One data set deals with primary leukemia cells. The experiment in a line: Gene expression profiling with GSEA. Type of data set: cell-based, murine. Conditions: 5 μM, 6 hours in suspension. Here is the method: To elucidate potential cell-autonomous effects of BRD7116, primary leukemia cells were exposed to either 5 μM BRD7116 or DMSO vehicle for 6 hours in suspension in IMDM (12440053, Invitrogen) with 10% FBS, 10 ng/ml mIL3, and 1× Pen-Strep.
RNA was isolated using a trizol-chloroform protocol or with a Qiagen RNeasy kit (74104, Qiagen). Total RNA from the samples was normalized to 20 ng/μl and the Illumina® TotalPrep™-96 RNA Amplification Kit (Applied Biosystems, PN #4393543) protocol was used for amplification in a semi automated process. The total RNA underwent reverse transcription to synthesize first-strand cDNA. This cDNA was then converted into a double-stranded DNA template for transcription. In vitro transcription synthesized aRNA and incorporated a biotin-conjugated nucleotide. […] Illumina's BeadArray Reader was used to measure the fluorescence intensity at each addressed bead location.
Gene-expression profiles were generated by using mouse ref-8 DNA microarray (Illumina) according to manufacturer's instruction. […] The resulting data was analyzed using Gene Set Enrichment Analysis method (Subramanian, A., Tamayo, P., Mootha, V. K., Mukherjee, S., Ebert, B. L., Gillette, M. A., Paulovich, A., Pomeroy, S. L., Golub, T. R., Lander, E. S., et al. (2005). Proc Natl Acad Sci USA 102, 15545-15550.). […]

The next data set deals with normal HSPCs. The data set can be described thus: Normal HSPC coculture on primary MSC stroma. Conditions: for IC50: Mus musculus. The procedure: The material was cleaned, crushed and sequentially passed through 100 and 70 μM filters (Falcon). […] The biotin-labeled cells were spun down, resuspended in 0.5% FBS in PBS, and incubated for 15-30 minutes at 4° C. with agitation with 1 mL of Dynabead M-280 streptavidin-linked magnetic beads per 4 mice. The bead-linked cells were depleted using magnetic separation and rinsed once. The lineage- and CD48-depleted cell fraction was labeled with streptavidin-APC-Cy7 antibody from BD Biosciences and c-kit-APC, Sca-1-FITC, CD48-Pacific Blue, and CD150 PE-Cy7 antibodies from eBioscience. DsRed-positive lineage-Sca-1+c-kit+CD48− HSCs were sorted using a FACS DiVa or FACS ARIA (BD Biosciences).
A total of 20 μL of 20 μg/mL fibronectin (Millipore) in PBS was added to each well of a 384-well clear-bottomed black tissue-culture treated plate (Corning) and incubated for 30-120 minutes at 33° C. or 37° C. […] The fibronectin solution was removed from each well using a 24-channel wand aspirator; then 30 μL of BMSC solution was added to plate 2000 BMSCs/well. […] Each plate was covered with a sterile rayon breathable membrane (VWR) and plastic lid, and then spun at 500 rpm (approximately 60× gravity) with slow braking. The plates were incubated at room temperature for 60-90 minutes before incubation at 33° C. with 5% CO2 for 3 days prior to HSC addition.
The sorted HSCs, SLAMs and progenitor cells were resuspended in phenol-red free alpha-MEM with 20% FBS and diluted to 10,000 cells/mL. A total of 20 μL of cell solution containing 200 hematopoietic cells was added to each well using a multichannel pipettor or liquid-dispensing system. Each plate was covered with a sterile rayon breathable membrane (VWR) and plastic lid, and then spun at 500 rpm (approximately 60×gravity) with slow braking. The plates were incubated at room temperature for 60-90 minutes before incubation at 33° C. with 5% CO2 overnight prior to compound or cytokine addition.
Image analysis was performed using MetaXpress software from MDC and CellProfiler software from the Broad Institute of Harvard and MIT.
Compound addition and incubation was performed as described for the LSC coculture screen above, but without a media change or readdition of the compound.
The selected set was screened in 8-point dose against both normal HSPCs with a high number of replicates (6) and LSC-enriched leukemia cells, each cocultured on primary MSCs.

Another data set concerns LSC (dsRed+). The experiment in a line: Stromal pretreatment of primary MSC stroma, triple coculture, leukemia cells. Format: cell-based, murine. The conditions noted are these: stroma pretreated three days, LSCs and HSPCs comingled. The procedure:
(§1) In the context of primary MSC stroma (uncolored), both HSPCs (from actin-GFP mice (000329, Jackson Lab)) and LSC (dsRed+) populations were comingled together in a ratio of 2:1 within the same 384format wells. As in the stromal pretreatment screen with OP9 stroma, BRD7116 was added for three days to the stroma prior to the addition of the hematopoietic populations. 5 days after compound addition, wells were imaged in the red and green channels and total cells were counted using MetaXpress software from MDC.
(§2) This experiment was also performed in the context of primary MSC stroma. Both HSPCs and LSC populations were comingled together in the same wells, as a “triple” coculture.

The next data set deals with HSPCs. The experiment in a line: Stromal pretreatment of primary MSC stroma, triple coculture, HSPCs. Format: cell-based, murine. Conditions: stroma pretreated three days, LSCs and HSPCs comingled. Here is the method:
as §1, §2

Data set [1] deals with primary CD34+ cells from normal human cord blood. The experiment in a line: Human CD34+ CAFC assay, normal cells. The conditions noted are these: 1.25 μM to 10 μM, 18 hours exposure.
Method: Samples were centrifuged over Ficoll-Paque PLUS (GE Heathcare) step gradient (2000×g for 30 min in 50 ml tubes) to obtain mononuclear cells and then CD34^+ cells were selected with immunomagnetic beads (MACS Cell Separation, Miltenyi Biotec, Auburn, Calif.), except in one case, NPM1 mutation, which was CD34^− by flow cytometry and mononuclear cells were used. 50,000 cells were placed into 12.5 cm^2 flasks (Becton Dickinson Labware, Franklin Lakes, N.J.) in co-culture with the MS-5 mouse bone marrow-derived stromal cell line (kindly provided by Dr. Itoh, Dept. of Biology, Niigata University, Japan) and DMSO control and the number of final cobblestones was later read. The number of cells needed to form one cobblestone was then placed in triplicate for each sample with each drug at serial drug dilutions from 10 μM to 0.63 μM as well as with DMSO 0.5% for control purposes and incubated overnight with Iscove's modified Dulbecco's medium (IMDM, in house media preparation laboratory)+20% fetal calf serum (FCS, Atlanta Biologicals, Lawrenceville, Ga.) with glutamine (2 mM/ml, in house media preparation laboratory), monothioglycerol (MTG, 10 nM/ml, Sigma Cell Culture, St. Louis Mo.), c-Kit ligand (20 ng/ml, Amgen, Thousand Oaks, Calif.), Flt ligand (20 ng/ml, Imclone, Bridgewater, N.J.), TPO (20 ng/ml, Amgen) and IL-3 (20 ng/ml, Amgen). […]
The cells were treated with compound or DMSO carrier control at four doses (ranging from 1.25 μM to 10 μM) in triplicate for 18 hours, washed thoroughly, then plated onto human stromal MS-5 monolayers (Itoh, K., Tezuka, H., Sakoda, H., Konno, M., Nagata, K., Uchiyama, T., Uchino, H., and Mori, K. J. (1989). Exp Hematol 17, 145-153.) and maintained in coculture with one subsequent half media change. After 5 weeks (2 weeks for the FLT3-ITD sample (Moore, M. A., Dorn, D. C., Schuring a, J. J., Chung, K. Y., and Morrone, G. (2007). Exp Hematol 35, 105-116.)), cobblestone formation was determined, and dose-response curves against the 7 cell types were generated for each compound.
In data set [2] the test system is leukemia cells on OP9 cells. The experiment in a line: Coculture pulse treatment experiment. Format: cell-based, murine. The conditions noted are these: 24 hours at Day 1 or Day 4 post LSC plating. Here is the method: 13,500 GFP+ OP9 cells were plated onto gelatin coated, 96 well black, clear bottom plates (3904, Corning). 24 hours later, 2,000 sorted leukemia cells were plated onto the monolayer. Compounds (5 μM) were added either 1 (early pulse) or 4 (late pulse) days later at the same 5 μM working concentration of main coculture screen. In both cases, compounds were removed after 24 hours of treatment, the wells were washed, and fresh media without compound was added. The plates were imaged and analyzed 6 days after leukemia cell plating. The viability of the stroma was assessed using stromal monolayers grown alone and treated in parallel, with the same readout described in the stromal toxicity screen above.

Setting [3] is: read-out: Normal IC50, HSPCs on primary MSC stroma, 8-point dose.

Each structure is given as a SMILES string. Entries after “also recorded” stand apart in the source; their conditions may differ. Read-outs that look alike come from different tables or passages of the source.

Broadly, the IC50 is the point on the concentration scale where inhibition reaches its midpoint. Regarding `CC1(C)C(C(=O)Nc2ccc(S(=O)(=O)c3ccc(NC(=O)C4C(C)(C)C4(C)C)cc3)cc2)C1(C)C` [BRD7116], the “gene expression changes (GSEA)” value in the data set with primary leukemia cells was “induces an AML differentiation program; also recorded: induction of an AML differentiation program”. Also, the IC50 in the data set with normal HSPCs (setting [3]) is more than 20 µM. Besides, in the data set on LSC (dsRed+), the “leukemia cells on pretreated MSC stroma” value is “selective inhibition of the leukemia cells; also recorded: an inhibition of the leukemia cells was observed”. Further, in the data set on HSPCs, the “numbers of comingled HSPCs on pretreated MSC stroma” value is “a decrease in the numbers of comingled HSPCs was not observed”.
With `CCC(C)C(=O)OC1CC(C)C=C2C=CC(C)C(CCC(O)CC(O)CC(=O)O)C21` (stereo not shown) [Lovastatic acid], the “toxicity against normal primary CD34+ cells (human CAFC)” value in data set [1] is “neither compound showed toxicity”. Besides, the IC50 in the data set on normal HSPCs (setting [3]) is more than 20 µM; in the data set with normal HSPCs (read-out: Normal IC50, statins (acid form), HSPCs cocultured on primary MSC stroma), more than 10 µM. Besides, the “effect on normal HSPCs in coculture” value in the data set with normal HSPCs (up to 20 μM, the maximum dose tested) is reported as “minimal toxicity”. For the same compound, the “leukemia cells at Day 6 endpoint after 24 hour pulse” value is on record as “strong inhibition of leukemia cells” in data set [2] and “near-complete loss of leukemia cells” in data set [2] (listed as lovastatin).
